# Results as given in publication PMC12223475, “Two Key Ferredoxins for Nitrogen Fixation Have Different Specificities and Biophysical Properties” (Chemistry (Weinheim an Der Bergstrasse, Germany), 2025).
# Target: T1, FdC (Rhodobacter capsulatus, UniProt D5ARY7)
# T1 construct: gene fdxC; full length, N-terminal Met replaced by Strep-tag (MAWSHPQFEK), tag kept; E. coli BL21-AI; monomer
# Assay: X-ray crystallography; UV-Vis; EPR
# Type: binding
# Conditions: 1.7 Å; anaerobic crystallisation, pH 8.0; ligands C38, C43, C46, C81
# T1 sequence (D5ARY7 2-95): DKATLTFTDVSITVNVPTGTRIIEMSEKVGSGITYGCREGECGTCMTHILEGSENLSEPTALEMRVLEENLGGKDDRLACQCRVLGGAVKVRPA
smiles,measurement,value
[S]1[Fe][S][Fe]1 [[Fe2S2]-cluster],X-ray crystallography; UV-Vis; EPR,The globular and monomeric FdC coordinates a [Fe2S2]‐cluster
